PMC11434868, “Synthesis and Antiproliferative Effect of 3,4,5-Trimethoxylated Chalcones on Colorectal and Prostatic Cancer Cells” (Pharmaceuticals, 2024)
Read-outs that look alike come from different tables or passages of the source.

Assays:
[1] = tested on: HCT116; test: MTT assay, antiproliferative effect on HCT116; assay type: cell-based; settings: Homo sapiens
Protocol: (§1) Human CRC (HCT116 and HT-29) and PCa (DU145 and PC3) cell lines were purchased from the American Type Culture Collection (ATCC—LGC Standards, Molsheim, France). All cells were grown in RPMI 1640 medium supplemented with 10% FBS, 1% L-glutamine, 100 U/mL penicillin, and 100 μg/mL streptomycin. Cultures were maintained in a humidified atmosphere containing 5% CO2 at 37 °C. Cells were seeded in 75 cm^2 culture flasks at 1.2 × 10^4 cells/cm^2 for HCT116, DU145, and PC3 cells, and 2.0 × 10^4 for HT-29 cells. Cells were grown for 24 h in culture medium prior to exposure or not to obtain the synthesized compounds. Stock solutions (10^−2 M in DMSO) of each compound were diluted in culture medium to obtain appropriate final concentrations.
(§2) • (a) MTT assay: The antiproliferative effect of all compounds was determined using MTT assay (a metabolic activity test). Briefly, cells were seeded in 96-well culture plates at 4 × 10^3 cells/well for HCT116, PC3, and DU145 cells and 6 × 10^3 cells/well for HT-29 cells (100 µL/well), and grown for 24 h in culture medium prior to exposure or not to obtain compounds 1–15 with concentrations ranging from 5 nM to 50 μM. After 24 and 48 h of treatment, MTT (5 mg/mL in PBS) was added and incubated for another 3 h. MTT was then removed from the wells before adding 100 μL/well of DMSO. The optical density was detected with a microplate reader (Multiskan FC, Thermoscientific, Bordeaux, France) at 550 nm and cell viability was expressed as a percentage of each treatment condition compared to control cells. IC50 values were calculated for all compounds from the dose–response curve. Data are expressed as the arithmetic means ± standard error of the mean (SEM) of separate experiments. All experiments were performed at least in triplicate. • (b) Trypan blue dye exclusion method: Cells were grown for 24 h then treated with compounds 10 and 13 at indicated concentrations. After 48 h of treatment, cells were trypsinized and resuspended in complete medium. Each sample was mixed with Trypan blue solution (0.14% in HBSS, Invitrogen-GIBCO, ThermoFisher, Illkirch, France). Colored (non-viable) and dye-excluding (viable) cells were counted with the LUNA-II automated cell Counter (Logos Biosystems; MC2, Aubière, France). The control was normalized to 100% including viable and dead cells. The results indicated on the histograms were expressed as the percentage of cells compared to the control. IC50 values were determined from the percentages of viable cells compared to the control.

[2] = tested on: HT-29; test: MTT assay, antiproliferative effect on HT-29; assay type: cell-based, human
Protocol: as §1, §2

[3] = tested on: DU145; test: MTT assay, antiproliferative effect on DU145; assay type: cell-based; settings: Homo sapiens
Protocol: as §1, §2

[4] = tested on: PC3; test: MTT assay, antiproliferative effect on PC3; assay type: cell-based; settings: Homo sapiens
Protocol: as §1, §2

[5] = tested on: cellular microtubules in HeLa cells; test: Quantitative assay of the cellular microtubule content (immunoluminescence); assay type: cell-based; settings: Homo sapiens, 0.5 h, 30 min incubation
Protocol: The assay was realized as described by Laisne et al.. Briefly, 7500 HeLa cells were seeded in 96-well microplates (#655086, Greiner bioOne, Courtaboeuf, France) in 100 µL of complete medium per well and then incubated at 37 °C in 5% CO2 for 24 h. Cells were then treated for 30 min at 37 °C with the compounds at concentrations ranging from 0.1 to 1000 µM (1 microplate per molecule, 1 concentration per column), with 0.1% DMSO used as […] (6 wells per microplate). After medium aspiration, treated cells were permeabilized for 10 min using 100 µL per well of warmed (37 °C) OPT buffer (80 mM Pipes, 1 mM EGTA, 1 mM MgCl2, 0.5% Triton X-100, and 10% glycerol, pH 6.8). Cells were fixed overnight at room temperature using 100 µL per well of 4% formaldehyde (Sigma Aldrich, #252549, Saint-Quentin-Fallavier, France) in PBS. Cells were washed 3 times in PBS, 0.1% Tween-20 (100 µL per well), then primary anti-alpha-tubulin antibody (clone α3A1), 1:5000 in PBS 2% Bovine Serum Albumin (BSA), was added for 45 min. Cells were washed twice again and secondary anti-mouse antibody coupled to HRP (1:2000 in PBS 2% BSA, #715-035-150, Jackson Immuno-Research Laboratories, Cambridgeshire, UK) was added for 45 min. Then, cells were washed again with PBS and 100 µL of ECL substrate (#170-5061, Bio-Rad Laboratories Inc., Hercules, CA, USA) was injected in each well using the FLUOstar OPTIMA Microplate Reader (BMG Lab technology, Champagny-sur-Marne, France). The luminescent signal was read immediately after ECL injection. IC50 values were calculated using GraphPad Prism software (10.3.1 version) and are presented in the text as means ± SEM of three independent experiments.

[6] = tested on: HeLa cells microtubules; test: Tubulin immunofluorescence; assay type: cell-based; settings: 30 min, chalcone 8 at 1 µM or chalcone 2 at 200 µM
Protocol: Cells at a density of 20,000 cells per well were grown for 48 h on glass coverslips placed in a 24-well microplate. When cells reached 70% confluence, the medium was replaced with a fresh one supplemented with DMSO (0.005% or 0.01%) or the test compound at 1 or 200 µM. After 30 min of incubation, cells were permeabilized in warm OPT buffer (80 mmol/L Pipes, […], 0.5% Triton X-100 and 10% Glycerol, pH 6.8) and fixed for 6 min in −20 °C methanol (Carlo ERBA SAS, #414855, Val-de-Reuil, France). After washing and saturation with a specific blocking buffer (3% BSA), 10% Goat serum (Gibco Invitrogen, #16210064, Carlsbad, CA, USA) in PBS, cells were incubated for 45 min at room temperature (RT) with anti-alpha-tubulin antibody (clone α3A1 in blocking buffer). Cells were washed twice again and subsequently incubated with Alexa 488 conjugated anti-mouse antibody (1:500 in blocking buffer, #115-545-166, Jackson immune-research laboratory, Cambridgeshire, UK) and DNA was stained with Dapi which was included in mounting media (Dapi fluoromount, #0100-20, Clinisciences, France). Images were captured with a Zeiss AxioimagerM2 microscope (Zeiss microscopy, Rueil Malmaison, France) equipped with the acquisition software AxioVision (4.8 version, Marly-le-Roi, France).

[7] = tested on: human PCa (DU145 and PC3) cell lines; test: MTT assay, summary statements for PCa cells; assay type: cell-based
Protocol: as §1, §2

[8] = HCT-116, 24 h, read-out: IC50 HCT116 24 h
[9] = HCT-116, 48 h, read-out: IC50 HCT116 48 h
[10] = 48 h, read-out: IC50 HT-29 48 h
[11] = Homo sapiens, HT-29, 24 h, 24 h, read-out: IC50 HT-29 24 h
[12] = Homo sapiens, HT-29, 48 h, 48 h, read-out: IC50 HT-29 48 h
[13] = DU-145, 24 h, read-out: IC50 DU145 24 h
[14] = DU-145, 48 h, read-out: IC50 DU145 48 h
[15] = PC-3, 24 h, read-out: IC50 PC3 24 h
[16] = PC-3, 48 h, read-out: IC50 PC3 48 h
[17] = read-out: IC50 depolymerization of cellular microtubules

SMILES | IC50 [1, 8] [µM] | IC50 [1, 9] [µM] | IC50 [2, 10] [µM] | IC50 [2, 11] [µM] | IC50 [2, 12] [µM] | IC50 [3, 13] [µM] | IC50 [3, 14] [µM] | IC50 [4, 15] [µM] | IC50 [4, 16] [µM] | IC50 ([5]; no unit in the picture, read-out: IC50 microtubule contents (printed in Figure 8)) [µM] | IC50 [5, 17] [µM] | state of tubulin / microtubules by immunofluorescence [6] | IC50 ([7]; Homo sapiens, DU-145, DU145 and PC3, text summary, read-out: IC50 against PCa cells) [µM] | IC50 ([7]; DU145 and PC3, read-out: IC50 towards PCa cells) [µM] | IC50 ([7]; Homo sapiens, DU-145, DU145 and PC3, text summary, read-out: IC50 towards PCa cells) [µM]
COc1cc(C(=O)/C=C/c2cccc(O)c2)cc(OC)c1OC [chalcone 2, (E)-3-(3-hydroxyphenyl)-1-(3,4,5-trimethoxyphenyl)prop-2-en-1-one] | 4.23 ± 0.11 | 2.66 ± 0.1 | 7.34 ± 0.22 | 9.87 ± 0.44 | 7.3 | 3.47 ± 0.24 | 2.97 ± 0.15 | 3.76 ± 0.28 | 3.44 ± 0.11 | 106 ± 4.69 | 106 ± 4.7 | tubulin is mainly in its depolymerized form | ~3 | – | –
COc1ccc(/C=C/C(=O)c2cc(OC)c(OC)c(OC)c2)cc1O [chalcone 8, (E)-3-(3-hydroxy-4-methoxyphenyl)-1-(3,4,5-trimethoxyphenyl)prop-2-en-1-one] | 0.22 ± 0.01 | 0.11 ± 0.02 | 8.11 ± 0.5 | 8.03 ± 0.18 | 8.1 | 0.036 ± 0.002 | 0.031 ± 0.001 | 0.021 ± 0.001 | 0.02 ± 0.001 | – | 0.289 ± 0.045 | tubulin is mainly in its depolymerized form | – | ~0.02 | 0.017 to 0.031
